The structures appear in SMILES notation.

The subject of the experiment is male Hartley strain guinea pigs. Put plainly: Konzett-Rossler in vivo test, antigen challenge of sensitized guinea pigs. The note with it: dosed orally, about 5 to 40 mg/kg, suspension in 4% aqueous acacia; ovalbumin 300 µg/kg intravenously 30 minutes later; bronchoconstrictor response. On the procedure:
The oral activity of compounds of Formula I may be demonsrated using the Konzett-Rossler in vivo test method. The activity is determined according to the procedure which follows. The Konzett-Rossler technique (H.Konzett and R. Rossler, Naunyn-Schmiedbergs Arch. Pharmakol., 195, 71-74, 1940 is used to assess the effect of compounds of Formula I of the invention on antigen challenge of male Hartley strain guinea pigs (350-500g). Fourteen days after sensitization with ovalbumin (50 mg/kg intraperitoneally) guinea pigs are anesthetized with pentobarbital (70 mg/kg intraperitoneally) and spontaneous respiration is eliminated with succinylcholine (2 mg/kg intra-peritoneally). The trachea is cannulated and respiration is maintained under positive pressure with a minature ventilator (5 ml/breath, 87 breaths/minute, 10 cm water). Bronchoconstrictor responses are represented as increased excursions of the tracing on a physiological recorder of air overflow to the lungs measured by a pneumotachograph in series with a differential pressure transducer. The guinea pigs are pretreated with an antihistamine, for example, chlorpheniramine, and are then dosed orally at a level of about 5 to 40 mg/kg with a suspension of a compound of Formula I of the invention in 4% aqueous acacia. The animals are challenged with ovalbumin (300 »g/kg intravenously) thirty (30) minutes later.

On to `CC(C)(C)c1cc(C(=O)Nc2cccc(-c3nnn[nH]3)c2)cc(C(C)(C)C)c1O.O` [Example 7, 5-[3-(3,5-di-t-butyl-4-hydroxybenzamido)phenyl]tetrazole hydrate], for which the oral activity result is “good oral activity”.

The record behind these values is EP0286364B1, “Substituted Di-t-Butylphenols” (RIKER LABORATORIES, INC., priority 1987, dated 1988).
